We go through five molecules from ChEMBL document CHEMBL1201862, “PubChem BioAssay data set” (2004).

Test systems include SNB-19; Malme-3M; SNB-75; SF-268; NCI-H522; SF-295; HCT-15; RPMI-8226; SK-MEL-2; MOLT-4; OVCAR-4; LOX IMVI; U-251; OVCAR-5; EKVX; A498; HOP-62; TK-10.
Assay in all cases: DTP human tumour cell line panel, 48 h

Structures are written as SMILES.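 Compound exposure: 48 hours, 5 concentrations, 96-well plates. GI50 = concentration required for 50% inhibition of growth.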 Activity calls are given as the source filed them. Rule as the data show it: active = GI50 up to about 1.1 µM and inactive = higher.

For `Cc1ccc(-c2nc3ccccc3c(=O)n2NCC2(O)OCC(O)C(O)C2O)cc1` (stereo not drawn), the GI50 in the assay on SNB-19, in the assay on Malme-3M, with SNB-75, in the assay on SF-268, in the assay with NCI-H522 and in the assay with SF-295 was > 100 µM (inactive) throughout. The GI50 in the assay with HCT-15 is more than 100 µM; in the assay on RPMI-8226, > 100 µM (inactive); with SK-MEL-2, > 100 µM (inactive); with MOLT-4, > 100 µM (inactive); in the assay with OVCAR-4, > 100 µM (inactive); in the assay on LOX IMVI, > 100 µM (inactive). The GI50 with U-251, with OVCAR-5, in the assay on EKVX and in the assay on A498 was > 100 µM (inactive) each time.

Turning to `Cn1c(CCC#N)nc2ccc(Br)cc2c1=O`, the GI50 in the assay on Malme-3M, in the assay with HOP-62, in the assay on SNB-75, with TK-10, in the assay on SF-268 and with NCI-H522 was > 100 µM (inactive) throughout. The GI50 in the assay on SF-295 is > 100 µM (inactive); with HCT-15 it was more than 100 µM; with RPMI-8226, > 100 µM (inactive); in the assay with SK-MEL-2, > 100 µM (inactive); in the assay with MOLT-4, > 100 µM (inactive); with OVCAR-4 it was > 100 µM (inactive). Besides, the GI50 in the assay with LOX IMVI, in the assay on U-251, in the assay with OVCAR-5, in the assay on EKVX and in the assay with A498 was > 100 µM (inactive) throughout.

`CN(C)c1ccc(/C=C/C(=O)c2ccccc2)cc1Br`: the GI50 was 18.8 µM (inactive) in the assay with SNB-19; 17.6 µM (inactive) in the assay with Malme-3M; 48.5 µM (inactive) with HOP-62; 16.6 µM (inactive) in the assay with SNB-75; 26.1 µM (inactive) in the assay with TK-10; 18.2 µM (inactive) in the assay on SF-268. Also, the GI50 with NCI-H522 is 15 µM (inactive); in the assay on SF-295, 20 µM (inactive); with HCT-15 it was 22.9 µM; with RPMI-8226 it was 13.2 µM (inactive); in the assay on SK-MEL-2, 18.4 µM (inactive); with MOLT-4 it was 23 µM (inactive). For the same molecule, the GI50 with OVCAR-4 is 15.5 µM (inactive); in the assay with U-251, 18.5 µM (inactive); with OVCAR-5, 49.3 µM (inactive); in the assay with EKVX it was > 100 µM (inactive); in the assay on A498 it was > 100 µM (inactive).

`CCCNCc1nc2ccc(Br)cc2c(=O)n1CCC`: the GI50 in the assay with SNB-19 was 16.8 µM (inactive); with Malme-3M, 13.5 µM (inactive); in the assay on HOP-62 it was 22 µM (inactive); with SNB-75, 17.1 µM (inactive); with SF-268, 13.6 µM (inactive); in the assay with NCI-H522 it was 13.4 µM (inactive). The GI50 was 16.9 µM (inactive) in the assay on SF-295; 14.2 µM with HCT-15; 3.67 µM (inactive) in the assay on RPMI-8226; 12.4 µM (inactive) in the assay with SK-MEL-2; 7.8 µM (inactive) in the assay on MOLT-4; 14.6 µM (inactive) in the assay with OVCAR-4. The GI50 in the assay with LOX IMVI is 4.93 µM (inactive); in the assay with U-251, 13.3 µM (inactive); in the assay on EKVX, 19.1 µM (inactive); with A498 it was 18.1 µM (inactive).

In the case of `COC(=O)c1c(OC)cccc1C(=O)O`, the GI50 with SNB-19, in the assay with Malme-3M, with HOP-62, in the assay with SNB-75, in the assay on TK-10 and in the assay with SF-268 was > 100 µM (inactive) throughout. In addition, the GI50 is > 100 µM (inactive) with NCI-H522; > 100 µM (inactive) with SF-295; more than 100 µM in the assay with HCT-15; > 100 µM (inactive) in the assay on RPMI-8226; > 100 µM (inactive) with SK-MEL-2; > 100 µM (inactive) with MOLT-4. In addition, the GI50 in the assay with OVCAR-4, with U-251, with OVCAR-5, in the assay with EKVX and with A498 was > 100 µM (inactive) each time.
